From ChEMBL document CHEMBL3885881, “DrugMatrix”

Species: Rattus norvegicus
Test: DrugMatrix - Regimen: Daily Repeat
Assay type: toxicity, organism-based, Sprague-Dawley
Set-up: regimen Daily Repeat, gender Male, age 6-8 weeks
Conditions: in vivo, po, route oral GAVAGE, […]; for ABSOLUTE BASOPHIL / ABSOLUTE EOSINOPHIL / ABSOLUTE LYMPHOCYTE / ABSOLUTE MONOCYTE / ABSOLUTE SEGMENTED NEUTROPHIL / BASOPHIL / EOSINOPHIL / ERYTHROCYTE COUNT / HEMATOCRIT / HEMOGLOBIN / LEUKOCYTE COUNT / LYMPHOCYTE / MEAN CORPUSCULAR HEMOGLOBIN / MEAN CORPUSCULAR HEMOGLOBIN CONCENTRATION / MEAN CORPUSCULAR VOLUME / MONOCYTE / NEUTROPHIL / NUCLEATED RED BLOOD CELLS / PLATELET COUNT: tissue Blood; for ALANINE AMINOTRANSFERASE / ALBUMIN / ALKALINE PHOSPHATASE / ASPARTATE AMINOTRANSFERASE / BLOOD UREA NITROGEN / CARBON DIOXIDE / CHLORIDE / CHOLESTEROL / CREATINE PHOSPHOKINASE / CREATININE / GLUCOSE / LACTATE DEHYDROGENASE / LIPASE / PHOSPHORUS / POTASSIUM / SODIUM / TOTAL BILIRUBIN / TOTAL PROTEIN / URIC ACID: tissue Plasma
[1] = 0 mg/kg, 72 h, dose level Control, time 3 day
[2] = 0 mg/kg, 120 h, dose level Control, time 5 day
[3] = 29 mg/kg, 72 h, dose level Low, time 3 day

C[C@@H]1CN(c2c(F)c(N)c3c(=O)c(C(=O)O)cn(C4CC4)c3c2F)C[C@H](C)N1 [SPARFLOXACIN]
ABSOLUTE BASOPHIL [1]: 0 CELLS/uL
ABSOLUTE EOSINOPHIL [1]: 70.67 CELLS/uL
ABSOLUTE LYMPHOCYTE [1]: 12761.5 CELLS/uL
ABSOLUTE MONOCYTE [1]: 214.17 CELLS/uL
ABSOLUTE SEGMENTED NEUTROPHIL [1]: 987 CELLS/uL
BASOPHIL [1]: 0%
EOSINOPHIL [1]: 0.5%
ERYTHROCYTE COUNT [1]: 5.61 x10E6/uL
HEMATOCRIT [1]: 35.22%
HEMOGLOBIN [1]: 13.57 G/DL
LEUKOCYTE COUNT [1]: 14.03 x10E3/uL
LYMPHOCYTE [1]: 91%
MEAN CORPUSCULAR HEMOGLOBIN [1]: 24.25 pg
MEAN CORPUSCULAR HEMOGLOBIN CONCENTRATION [1]: 38.52 G/DL
MEAN CORPUSCULAR VOLUME [1]: 62.9 fL
MONOCYTE [1]: 1.5%
NEUTROPHIL [1]: 7%
NUCLEATED RED BLOOD CELLS [1]: 0 /100WBC
PLATELET COUNT [1]: 997.5 x10E3/uL
ALANINE AMINOTRANSFERASE [1]: 66.5 u/L
ALBUMIN [1]: 3.98 G/DL
ALKALINE PHOSPHATASE [1]: 350 u/L
ASPARTATE AMINOTRANSFERASE [1]: 83.83 u/L
BLOOD UREA NITROGEN [1]: 12.33 mg/dL
CARBON DIOXIDE [1]: 30.33 mmol/L
CHLORIDE [1]: 100 MEQ/L
CHOLESTEROL [1]: 75 mg/dL
CREATINE PHOSPHOKINASE [1]: 200 u/L
CREATININE [1]: 0.17 mg/dL
GLUCOSE [1]: 170 mg/dL
LACTATE DEHYDROGENASE [1]: 89.33 u/L
LIPASE [1]: 10.33 u/L
PHOSPHORUS [1]: 10.88 mg/dL
POTASSIUM [1]: 6.13 MEQ/L
SODIUM [1]: 140.53 MEQ/L
TOTAL BILIRUBIN [1]: 0.2 mg/dL
TOTAL PROTEIN [1]: 5.67 G/DL
URIC ACID [1]: 1.6 mg/dL
ABSOLUTE BASOPHIL [2]: 0 CELLS/uL
ABSOLUTE EOSINOPHIL [2]: 0 CELLS/uL
ABSOLUTE LYMPHOCYTE [2]: 9526.67 CELLS/uL
ABSOLUTE MONOCYTE [2]: 134.17 CELLS/uL
ABSOLUTE SEGMENTED NEUTROPHIL [2]: 922.5 CELLS/uL
BASOPHIL [2]: 0%
EOSINOPHIL [2]: 0%
ERYTHROCYTE COUNT [2]: 5.58 x10E6/uL
HEMATOCRIT [2]: 34.78%
HEMOGLOBIN [2]: 13.5 G/DL
LEUKOCYTE COUNT [2]: 10.58 x10E3/uL
LYMPHOCYTE [2]: 90.17%
MEAN CORPUSCULAR HEMOGLOBIN [2]: 24.27 pg
MEAN CORPUSCULAR HEMOGLOBIN CONCENTRATION [2]: 38.82 G/DL
MEAN CORPUSCULAR VOLUME [2]: 62.48 fL
MONOCYTE [2]: 1.17%
NEUTROPHIL [2]: 8.67%
NUCLEATED RED BLOOD CELLS [2]: 0.17 /100WBC
PLATELET COUNT [2]: 807.17 x10E3/uL
ALANINE AMINOTRANSFERASE [2]: 66.83 u/L
ALBUMIN [2]: 3.73 G/DL
ALKALINE PHOSPHATASE [2]: 286.17 u/L
ASPARTATE AMINOTRANSFERASE [2]: 142.33 u/L
BLOOD UREA NITROGEN [2]: 14.67 mg/dL
CARBON DIOXIDE [2]: 25.5 mmol/L
CHLORIDE [2]: 89.17 MEQ/L
CHOLESTEROL [2]: 75.17 mg/dL
CREATINE PHOSPHOKINASE [2]: 310.67 u/L
CREATININE [2]: 0.2 mg/dL
GLUCOSE [2]: 153 mg/dL
LACTATE DEHYDROGENASE [2]: 1594 u/L
LIPASE [2]: 14.83 u/L
PHOSPHORUS [2]: 11.28 mg/dL
POTASSIUM [2]: 8.46 MEQ/L
SODIUM [2]: 126.88 MEQ/L
TOTAL BILIRUBIN [2]: 0.37 mg/dL
TOTAL PROTEIN [2]: 5.53 G/DL
URIC ACID [2]: 1.52 mg/dL
ABSOLUTE BASOPHIL [3]: 0 CELLS/uL
ABSOLUTE EOSINOPHIL [3]: 0 CELLS/uL
ABSOLUTE LYMPHOCYTE [3]: 14451.67 CELLS/uL
ABSOLUTE MONOCYTE [3]: 45 CELLS/uL
ABSOLUTE SEGMENTED NEUTROPHIL [3]: 1203.33 CELLS/uL
BASOPHIL [3]: 0%
EOSINOPHIL [3]: 0%
ERYTHROCYTE COUNT [3]: 5.64 x10E6/uL
HEMATOCRIT [3]: 35.07%
HEMOGLOBIN [3]: 13.97 G/DL
LEUKOCYTE COUNT [3]: 15.7 x10E3/uL
LYMPHOCYTE [3]: 92%
MEAN CORPUSCULAR HEMOGLOBIN [3]: 24.77 pg
MEAN CORPUSCULAR HEMOGLOBIN CONCENTRATION [3]: 39.83 G/DL
MEAN CORPUSCULAR VOLUME [3]: 62.2 fL
MONOCYTE [3]: 0.33%
NEUTROPHIL [3]: 7.67%
NUCLEATED RED BLOOD CELLS [3]: 0.33 /100WBC
PLATELET COUNT [3]: 1161 x10E3/uL
ALANINE AMINOTRANSFERASE [3]: 67.67 u/L
ALBUMIN [3]: 4 G/DL
ALKALINE PHOSPHATASE [3]: 395.67 u/L
ASPARTATE AMINOTRANSFERASE [3]: 96.33 u/L
BLOOD UREA NITROGEN [3]: 9.67 mg/dL
CARBON DIOXIDE [3]: 25 mmol/L
CHLORIDE [3]: 102.33 MEQ/L
CHOLESTEROL [3]: 76.33 mg/dL
CREATINE PHOSPHOKINASE [3]: 757 u/L
CREATININE [3]: 0.16 mg/dL
GLUCOSE [3]: 172.67 mg/dL
LACTATE DEHYDROGENASE [3]: 255.33 u/L
LIPASE [3]: 10.33 u/L
PHOSPHORUS [3]: 11.53 mg/dL
POTASSIUM [3]: 6.56 MEQ/L
SODIUM [3]: 142.23 MEQ/L
TOTAL BILIRUBIN [3]: 0.13 mg/dL
TOTAL PROTEIN [3]: 5.83 G/DL
URIC ACID [3]: 1.93 mg/dL
